Laboratory results taken from US9446071B2, “Antimicrobially active compositions based on zinc compound, glycerine monoalkyl ether and antioxidant” (L'AIR LIQUIDE SOCIETE ANONYME POUR L'ETUDE ET …, priority 2012, dated 2016).

Test system: Streptococcus mutans ATCC: 25175
Assay: Minimal inhibitory concentration (method C) of mouthwash formulations
Format: cell-based
Conditions: pH 4
Method: The minimal inhibitory concentration which is required by a preparation in order to inhibit the growth of a defined microorganism is tested.
5 ml of the given product test solution (optionally doubly concentrated) is mixed with 5 ml of doubly concentrated CSS broth. The tubes are then inoculated with 0.1 ml of a test suspension containing 10^8 microbes.
The assessment is performed after 48 hr incubation at 36° C.±1° C. (C. albicans 30° C.±1° C.).
Further, the action of combinations according to the invention against the caries-causing organism Streptococcus mutans in the mouthwash formulations shown in Table 10 was tested.
The pH of the formulations was adjusted to pH 4.

Molecule: O=C([O-])CC(O)(CC(=O)[O-])C(=O)[O-].O=C([O-])CC(O)(CC(=O)[O-])C(=O)[O-].[Zn+2].[Zn+2].[Zn+2] [TZC, trizinc citrate]
- Activity against Streptococcus mutans: not sufficient

Molecule: PEG-40 macrogol glycerol hydroxystearate [Mghs]
- Activity against Streptococcus mutans: no intrinsic activity
